The subject of assay [1] is electrically blocked neurons (mouse spinal cord neurons). The format is cell-based.
For assay [2], the system named is untreated neurons (cerebral cortical cultures). The assay can be described thus: Survival of untreated neurons (naturally occurring death), cerebral cortical cultures. The format is cell-based. To be noted: untreated rat cerebral cortical cultures. On the procedure: (a) Cerebral cortical cultures were prepared by a slight modification of the techniques described by Forsythe and Westbrook, (a. Physiol. Lond. 396:515 (1988)), in which cerebral cortex was used instead of hippocampus and newborn rats were utilized instead of E16 mice. After nine days growth in vitro, the cultures were given a complete change of medium and treated with serial dilutions of either peptide 1, 2 or 6 in order to determine whether these peptides were effective in protecting neurons from naturally occurring death. Cerebral cortical cells were counted as above, however, only 40 fields per plate were counted comprising an area of 20 mm^2.
(a) Cells were prepared as described in Example 6. After nine days growth in vitro, the cultures were given a complete change of medium and treated with serial dilutions of peptide 5 or of peptide 3 in the presence and in the absence of 10^-8 M of a VIP antagonist described in detail in U.S. Pat. No. 5,217,953. One treatment was given at the beginning of a five day test period. Cell counts were performed on 100 fields, with a total area of 50 mm^2. Neurons were counted without knowledge of treatment.

Assay [3] relates to Neurons from rat cerebral cortex treated with β-amyloid peptide fragment 25-35. The assay can be described thus: Survival of neurons treated with fragment 25-35 of β-amyloid peptide. Particulars: 25 μM fragment alone; 150 without fragment.

For the compound `CCCC[C@H](NC(=O)[C@H](CCC(N)=O)NC(=O)[C@H](CCCCN)NC(=O)[C@H](CCCNC(=N)N)NC(=O)[C@H](CC(C)C)NC(=O)[C@H](CCCNC(=N)N)NC(=O)[C@@H](NC(=O)[C@H](Cc1ccc(O)cc1)NC(=O)[C@H](CC(N)=O)NC(=O)[C@H](CC(=O)O)NC(=O)[C@@H](NC(=O)[C@H](Cc1ccccc1)NC(=O)[C@@H](NC(=O)[C@H](C)NC(=O)[C@H](CC(=O)O)NC(=O)[C@H](CO)NC(=O)[C@@H](N)Cc1c[nH]cn1)C(C)C)[C@@H](C)O)[C@@H](C)O)C(=O)N[C@@H](C)C(=O)N[C@H](C(=O)N[C@@H](CCCCN)C(=O)N[C@@H](CCCCN)C(=O)N[C@@H](Cc1ccc(O)cc1)C(=O)N[C@@H](CC(C)C)C(=O)N[C@@H](CC(N)=O)C(=O)N[C@@H](CO)C(=O)N[C@H](C(=O)N[C@@H](CC(C)C)C(=O)N[C@@H](CC(N)=O)C(N)=O)[C@@H](C)CC)C(C)C` [Nle^17 -VIP, Norleucine^17 -VIP], the “potency relative to native VIP in protecting electrically blocked cells from death” value in assay [1] is “about 10 fold”.

For “St-His-Ser-Asp-Gly-Ee-Phe-Thr-Asp-Ser-Tyr-Ser-Arg-Tyr-Arg-amide (stearyl-HSDGIFTDSYSRYR-NH2; not fully specified (residue 5); printed as St-His-Ser-Asp-Gly-Ee-Phe-Thr-Asp-Ser-Tyr-Ser-Arg-Tyr-Arg-amide) [peptide 1]”, the “concentrations protecting cells from naturally occurring death” value in assay [2] is recorded as “above 10^-8 M”.

In the case of “fragment 25-35 of β-amyloid peptide: β-amyloid peptide fragment comprising amino acids in positions 25 to 35, toxic to neurons in culture (GSNKGAIIGLM; Amyloid-beta protein 42; UniProt P05067 696-706, looked up, fragment) [reference compound]”, the “number of living neurons per tested area” value in assay [3] worked out at 42 neurons.

Values taken from patent US5972883A, “Method for the treatment of neurodegenerative diseases by administering VIP, an analogue, fragment or a conjugate thereof” (Yeda Research and Development Co. Ltd., priority 1993, dated 1999).
